Data: patent publication US10669272B2, “Substituted naphthyridinone compounds useful as T cell activators” (BRISTOL-MYERS SQUIBB COMPANY, priority 2018, dated 2020)
Where two headings read alike, the source gives them in different places.

Key:
[1] = system: Human venous whole blood; experiment: Human whole blood IFN-γ assay; type: cell-based; details: human whole blood, read-out: INFg Whole Blood Normalized Agonist EC50;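 note: blood from healthy donors exposed to compound for 1 h before stimulation with anti-CD3 and anti-CD28 at 1 µg/mL each, IFN-γ quantified in supernatant by AlphaLISA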
Method: Human Whole Blood IFN-γ Assay
Human venous whole blood (22.5 μL per well), obtained from healthy donors, was pre-treated with compounds for one hour at 37° C. in a humidified 95% air/5% CO2 incubator. The blood was stimulated with 2.5 μL anti-human CD3 and anti-CD28 mAb at a final concentration of 1 μg/mL each for 24 hours at 37° C. IFN-γ in the supernatants was measured using AlphLISA kit (Cat # AL217).

[2] = biological target: T1, human DGKζ (Homo sapiens, UniProt Q13574); experiment: DGKζ LIPGLO assay (extruded liposome substrate), in vitro DGK inhibition; type: biochemical; details: read-out: DGKz LIPGLO IC50
T1 construct: TVMV protease cleavage site (C); Hexa-His (C); made in house; host or cells: Sf9 insect cells (baculovirus, Bac-to-Bac)
T1 sequence (Q13574 with tags, fused parts or gaps isoform Q13574-4): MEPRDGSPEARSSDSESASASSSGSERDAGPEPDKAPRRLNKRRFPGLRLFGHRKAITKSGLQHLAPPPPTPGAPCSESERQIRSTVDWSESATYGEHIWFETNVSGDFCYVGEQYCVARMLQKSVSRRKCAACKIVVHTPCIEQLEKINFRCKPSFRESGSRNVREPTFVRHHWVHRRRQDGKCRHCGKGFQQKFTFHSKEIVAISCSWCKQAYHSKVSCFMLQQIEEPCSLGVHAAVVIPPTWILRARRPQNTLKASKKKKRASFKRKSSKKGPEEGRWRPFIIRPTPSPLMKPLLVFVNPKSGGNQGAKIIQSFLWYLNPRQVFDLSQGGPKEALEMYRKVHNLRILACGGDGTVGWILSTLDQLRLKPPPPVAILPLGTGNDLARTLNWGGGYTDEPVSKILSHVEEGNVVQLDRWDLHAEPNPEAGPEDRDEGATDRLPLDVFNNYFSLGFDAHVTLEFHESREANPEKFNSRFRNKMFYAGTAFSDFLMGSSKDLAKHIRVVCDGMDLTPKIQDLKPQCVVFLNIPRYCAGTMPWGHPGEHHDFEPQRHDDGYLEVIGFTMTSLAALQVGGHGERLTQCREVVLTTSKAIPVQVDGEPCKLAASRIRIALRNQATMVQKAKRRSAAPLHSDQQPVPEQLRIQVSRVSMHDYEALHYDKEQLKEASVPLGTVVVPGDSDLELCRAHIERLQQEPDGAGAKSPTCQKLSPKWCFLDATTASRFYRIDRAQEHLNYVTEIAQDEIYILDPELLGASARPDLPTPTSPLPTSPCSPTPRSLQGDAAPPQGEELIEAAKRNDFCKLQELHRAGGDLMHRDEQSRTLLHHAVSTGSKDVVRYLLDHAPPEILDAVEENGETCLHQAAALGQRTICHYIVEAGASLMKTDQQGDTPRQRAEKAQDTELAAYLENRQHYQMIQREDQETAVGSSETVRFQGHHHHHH

[3] = biological target: T2, human DGKα (Homo sapiens, UniProt P23743); experiment: DGKα LIPGLO assay (extruded liposome substrate), in vitro DGK inhibition; type: biochemical; details: read-out: DGKa LIPGLO IC50
T2 construct: TVMV protease cleavage site (C); Hexa-His (C); made in house; host or cells: Sf9 insect cells (baculovirus, Bac-to-Bac)
T2 sequence (P23743 with tags, fused parts or gaps): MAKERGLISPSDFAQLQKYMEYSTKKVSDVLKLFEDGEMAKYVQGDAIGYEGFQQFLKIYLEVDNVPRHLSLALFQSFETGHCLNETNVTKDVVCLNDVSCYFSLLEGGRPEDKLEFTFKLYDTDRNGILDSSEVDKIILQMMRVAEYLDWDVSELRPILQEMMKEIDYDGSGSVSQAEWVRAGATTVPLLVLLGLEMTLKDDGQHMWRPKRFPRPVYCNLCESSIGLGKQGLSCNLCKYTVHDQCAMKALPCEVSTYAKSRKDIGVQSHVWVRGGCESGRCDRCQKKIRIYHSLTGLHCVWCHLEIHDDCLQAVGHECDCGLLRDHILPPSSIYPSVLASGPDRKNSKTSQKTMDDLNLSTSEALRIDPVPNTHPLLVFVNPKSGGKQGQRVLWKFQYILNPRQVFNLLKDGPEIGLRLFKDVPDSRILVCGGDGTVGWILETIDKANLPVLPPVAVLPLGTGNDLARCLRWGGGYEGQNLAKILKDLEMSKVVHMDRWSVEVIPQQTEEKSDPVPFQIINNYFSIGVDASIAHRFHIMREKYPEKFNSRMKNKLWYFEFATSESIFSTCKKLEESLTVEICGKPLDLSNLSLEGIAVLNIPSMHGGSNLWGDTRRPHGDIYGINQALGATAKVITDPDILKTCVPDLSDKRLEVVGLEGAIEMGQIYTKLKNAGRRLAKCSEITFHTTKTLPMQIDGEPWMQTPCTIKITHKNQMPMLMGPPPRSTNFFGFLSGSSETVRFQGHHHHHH

[4] = Homo sapiens, 24 h, anti-CD3 plus anti-CD28, 24 hours, 3 μM reference compound = 100% activation
[5] = normalized to 3 μM reference compound with anti-CD3 plus anti-CD28 as 100% activation
[6] = Homo sapiens, 24 h, normalized to 3 μM reference compound with anti-CD3 plus anti-CD28 as 100% activation
[7] = anti-CD3 plus anti-CD28, 24 hours, 3 μM reference compound = 100% activation

| Structure (SMILES) | EC50 [1, 4] [nM] | IC50 ([2]; DGKζ liposome (LIPGLO) assay) [nM] | IC50 ([3]; DGKα liposome (LIPGLO) assay) [nM] | EC50 [1, 5] [nM] | IC50 ([2]; liposome (LIPGLO) assay) [nM] | IC50 ([3]; liposome (LIPGLO) assay) [nM] | EC50 [1, 6] [nM] | EC50 [1, 7] [nM] |
| --- | --- | --- | --- | --- | --- | --- | --- | --- |
| CC(c1ccccc1C(F)(F)F)N1CCN(c2c(C#N)c(=O)n(C)c3ccc(C#N)nc23)C[C@H]1C (single isomer, unassigned) [Example 966] | 20000 | > 250000 | 61000 | – | – | – | – | – |
| C[C@@H]1CN(c2c(C#N)c(=O)n(C)c3ccc(C#N)nc23)CCN1Cc1ccccc1Cl [Example 997] | 20000 | 3300 | 1100 | – | – | – | – | – |
| C[C@@H]1CN(c2cc(=O)n(C)c3ccc(C#N)nc23)[C@@H](C)CN1C(c1ccc(F)cc1)c1cncnc1 (single isomer, unassigned) [Example 394] | – | – | – | 18000 | 49000 | 42000 | – | – |
| CC(c1ccc(F)cc1)N1C[C@H](C)N(c2c(C#N)c(=O)n(C)c3ccc(C#N)nc23)C[C@H]1C (single isomer, unassigned) [Example 782] | 1100 | 3400 | 180 | – | – | – | – | – |
| C[C@@H]1CN(c2cc(=O)n(C)c3ccc(C#N)nc23)[C@@H](C)CN1C(c1ccc(F)cc1)c1cnsc1 (single isomer, unassigned) [Example 716] | – | – | – | 3100 | 20000 | 6600 | – | – |
| CC[C@H]1CN(Cc2c(F)cc(F)cc2F)[C@H](C)CN1c1cc(=O)n(C)c2ccc(C#N)nc12 [Example 1148] | – | – | – | – | 160 | 38 | 1200 | – |
| COC(=O)c1cccc(C(C)N2CCN(c3c(C#N)c(=O)n(C)c4ccc(C#N)nc34)C[C@H]2C)c1 (single isomer, unassigned) [Example 982] | 20000 | 1700 | 8100 | – | – | – | – | – |
| C[C@@H]1CN(c2cc(=O)n(C)c3ccc(C#N)nc23)[C@@H](C)CN1C(c1ccc(Br)cc1)c1nc(C2CC2)no1 (stereo partly drawn) [Example 761] | – | 41 | 48 | – | – | – | – | 170 |
| CC(=O)NC[C@@H]1CN(c2cc(=O)n(C)c3ccc(C#N)nc23)[C@@H](C)CN1C(c1ccc(F)cc1)c1ccc(F)cc1 [Example 1165, N-(((2R,5S)-1-(bis(4-fluorophenyl)methyl)-4-(6-cyano-1-methyl-2-oxo-1,2-dihydro-1,5-naphthyridin-4-yl)-5-methylpiperazin-2-yl)methyl)acetamide] | – | – | – | – | 1100 | 3400 | 240 | – |
| CCC(c1ccc(OCCC2CC2)cc1)N1C[C@H](C)N(c2cc(=O)n(C)c3ccc(C#N)nc23)C[C@H]1C (single isomer, unassigned) [Example 1446] | – | – | – | 230 | 230 | 260 | – | – |
| CC[C@H]1CN(C(c2ccc(F)cc2)c2ccc(C(F)(F)F)cn2)[C@H](C)CN1c1cc(=O)n(C)c2ccc(C#N)nc12 (single isomer, unassigned) [Example 1132] | – | – | – | 1600 | 790 | 620 | – | – |
| C[C@@H]1CN(c2c(C#N)c(=O)n(C)c3ccc(C#N)nc23)[C@@H](C)CN1C(c1ccc(F)cc1)c1cn(C)cn1 (single isomer, unassigned) [Example 853] | 20000 | 38000 | 19000 | – | – | – | – | – |
| CC[C@@H]1CN(c2cc(=O)n(C)c3ccc(C#N)nc23)[C@@H](C)CN1C(C)c1ccc(C(F)(F)F)cc1F (single isomer, unassigned) [Example 1085] | – | – | – | 160 | 32 | 360 | – | – |
| C[C@@H]1CN(c2cc(=O)n(C)c3ccc(C#N)nc23)[C@@H](C)CN1Cc1cc(C#N)cs1 [Example 1422, 8-((2S,5R)-4-((4-cyanothiophen-2-yl)methyl)-2,5-dimethylpiperazin-1-yl)-5-methyl-6-oxo-5,6-dihydro-1,5-naphthyridine-2-carbonitrile] | – | – | – | – | 4200 | 290 | 6900 | – |
| CC[C@@H]1CN(c2cc(=O)n(C)c3ccc(C#N)nc23)[C@@H](C)CN1C(C)c1ccc(OC(C)C)cc1 (single isomer, unassigned) [Example 1349] | – | – | – | 580 | 2200 | 5400 | – | – |
| Cc1c(F)cccc1CN1CCN(c2c(C#N)c(=O)n(C)c3ccc(C#N)nc23)C[C@H]1C [Example 1010] | 2000 | 1000 | 1800 | – | – | – | – | – |
| CC(c1ccc(OC(F)(F)F)cc1)N1C[C@H](C)N(c2cc(=O)n(C)c3ccc(C#N)nc23)C[C@H]1C (single isomer, unassigned) [Example 436] | – | – | – | 440 | 810 | 65 | – | – |
| CSCC(c1ccc(F)cc1)N1C[C@H](C)N(c2cc(=O)n(C)c3ccc(C#N)nc23)C[C@H]1C (single isomer, unassigned) [Example 1318] | – | – | – | – | 34 | 6.2 | 88 | – |
| C[C@H]1CN(C(c2ccc(F)cc2)c2ccon2)[C@H](CO)CN1c1cc(=O)n(C)c2ccc(C#N)nc12 (single isomer, unassigned) [Example 1392] | – | – | – | 14000 | 3800 | 1900 | – | – |

| Structure (SMILES) | EC50 [1, 4] [nM] | IC50 ([2]; DGKζ liposome (LIPGLO) assay) [nM] | IC50 ([3]; DGKα liposome (LIPGLO) assay) [nM] | EC50 [1, 5] [nM] | IC50 ([2]; liposome (LIPGLO) assay) [nM] | IC50 ([3]; liposome (LIPGLO) assay) [nM] | EC50 [1, 6] [nM] | EC50 [1, 7] [nM] |
| --- | --- | --- | --- | --- | --- | --- | --- | --- |
| C[C@@H]1CN(c2c(C#N)c(=O)n(C)c3ccc(C#N)nc23)CCN1C(c1ccc(F)cc1)c1ccc(F)cn1 (stereo partly drawn) [Example 902] | – | 2600 | 250 | – | – | – | – | 2200 |
| C[C@@H]1CN(c2cc(=O)n(C)c3ccc(C#N)nc23)[C@@H](C)CN1Cc1cccc2c1cnn2C [Example 475, 8-((2S,5R)-2,5-dimethyl-4-((1-methyl-1H-indazol-4-yl)methyl)piperazin-1-yl)-5-methyl-6-oxo-5,6-dihydro-1,5-naphthyridine-2-carbonitrile] | – | – | – | – | 2000 | 16000 | 20000 | – |
| C[C@@H]1CN(c2c(C#N)c(=O)n(C)c3ccc(C#N)nc23)[C@@H](C)CN1C(c1ccc(F)cc1)c1cnn(C)c1 (stereo partly drawn) [Example 847] | – | 7400 | 22000 | – | – | – | – | 5000 |
| C[C@@H]1CN(c2cc(=O)n(C)c3ccc(C#N)nc23)[C@@H](C)CN1C(c1ccc(Cl)cc1)c1nc(C2CC2)no1 (single isomer, unassigned) [Example 1286] | – | – | – | 270 | 100 | 38 | – | – |
| CC(c1nc(C2CC2)cs1)N1C[C@H](C)N(c2cc(=O)n(C)c3ccc(C#N)nc23)C[C@H]1C (single isomer, unassigned) [Example 646] | – | – | – | – | 2700 | 1600 | 6700 | – |
| C[C@@H]1CN(c2cc(=O)n(C)c3ccc(C#N)nc23)[C@@H](C)CN1C(c1ccc(F)cc1)c1nc(C2CCN(C)CC2)no1 (single isomer, unassigned) [Example 752] | – | 4100 | 1000 | – | – | – | – | 1700 |
| CC[C@H]1CN(C(c2cccc(F)c2)c2ccc(C)cn2)[C@H](C)CN1c1cc(=O)n(C)c2ccc(C#N)nc12 (single isomer, unassigned) [Example 1125] | – | – | – | 170 | 1500 | 360 | – | – |
| CC(C)Oc1ccc(C(C)N2C[C@H](C)N(c3cc(=O)n(C)c4ccc(C#N)nc34)C[C@H]2C)cn1 (single isomer, unassigned) [Example 1324] | – | – | – | 690 | 140 | 12000 | – | – |
| [2H]C(CC)(c1ccc(F)cc1)N1C[C@H](C)N(c2cc(=O)n(C)c3ccc(C#N)nc23)C[C@H]1C (single isomer, unassigned) [Example 575] | – | – | – | 360 | 1600 | 180 | – | – |
| C[C@@H]1CN(c2cc(=O)n(C)c3ccc(C#N)nc23)[C@@H](C)CN1C(c1ccc(F)cc1)c1ccnc(C(C)(C)C)n1 (single isomer, unassigned) [Example 409] | – | – | – | 430 | 53 | 5300 | – | – |
| CCC(c1ccc(C2CC2)cc1F)N1C[C@H](C)N(c2cc(=O)n(C)c3ccc(C#N)nc23)C[C@H]1C (stereo partly drawn) [Example 1219] | – | – | – | 320 | 69 | 67 | – | – |
| C[C@@H]1CN(c2cc(=O)n(C)c3ccc(C#N)nc23)[C@@H](C)CN1C(c1ccc(F)cc1)c1cncc(F)c1 (single isomer, unassigned) [Example 415] | – | – | – | – | 19000 | 35000 | 16000 | – |
| C[C@@H]1CN(c2c(C#N)c(=O)n(C)c3ccc(C#N)nc23)[C@@H](C)CN1C(c1ccccc1)c1ccc(Cl)cc1 (stereo partly drawn) [Example 835] | – | 11000 | 11000 | – | – | – | – | 20000 |
| C[C@@H]1CN(c2c(C#N)c(=O)n(C)c3ccc(C#N)nc23)CCN1C(c1ccc(F)cc1)c1ccc(C#N)cn1 (single isomer, unassigned) [Example 924] | – | 10000 | 3200 | – | – | – | – | 4000 |
| Cc1ccc(C(c2cccc(F)c2)N2C[C@H](C)N(c3cc(=O)n(C)c4ccc(C#N)nc34)C[C@H]2C)cn1 (single isomer, unassigned) [Example 395] | – | – | – | 6300 | 7800 | 48000 | – | – |
| CC(c1ccc(-n2cncn2)cc1)N1C[C@H](C)N(c2cc(=O)n(C)c3ccc(C#N)nc23)C[C@H]1C (single isomer, unassigned) [Example 1239] | – | – | – | 20000 | 23000 | 26000 | – | – |
| CC[C@@H]1CN(c2cc(=O)n(C)c3ccc(C#N)nc23)[C@@H](C)CN1Cc1ccc(F)cc1Cl [Example 1078] | – | – | – | – | 110 | 2700 | 970 | – |
| CC[C@H]1CN(C(C)c2ccc(C(F)(F)F)cc2F)[C@H](CC)CN1c1cc(=O)n(C)c2ccc(C#N)nc12 (single isomer, unassigned) [Example 1364] | – | – | – | 58 | 29 | 150 | – | – |
